# Earlier results in patent US12611397B1, “Pharmaceutical composition of darolutamide” (ORION CORPORATION, priority 2019, dated 2026).
smiles,measurement,value
"CC(O)c1cc(C(=O)N[C@@H](C)Cn2ccc(-c3ccc(C#N)c(Cl)c3)n2)[nH]n1 (stereo partly drawn) [Darolutamide, N—((S)-1-(3-(3-chloro-4-cyanophenyl)-1H-pyrazol-1-yl)-propan-2-yl)-5-(1-hydroxyethyl)-1H-pyrazole-3-carboxamide]",Solubility in water,poorly soluble in water
